Results from US20230364118A1, “RIBITOL TREATMENT” (priority 2020, published 2023).
Entries after “also recorded” stand apart in the source; their conditions may differ. Read-outs that look alike come from different tables or passages of the source.

Key:
[1] = Single intravenous dose PK; assay type: in vivo, Bama minipig; conditions: for CLs: Bama minipigs
Experimental: The PK of ribitol was studied in 2 male and 2 female Bama minipigs following escalating IV doses levels using the same animals with a 48 hour washout period at 10 mg/kg (Day 1), 30 mg/kg (Day 3) and 100 mg/kg (Day 5). On each dosing day, blood samples were collected serially up to 24 hours post dose.

Single oral dose PK = assay type: in vivo, CD-1 mouse
Experimental: The PK of ribitol was studied in male and female CD-1 mice following two oral doses at 0.3 and 1.0 g/kg (FIG. 10). Blood samples were collected serially up to 24 hours post dose.

[2] = Chronic (6 months) administration in mice; assay type: in vivo, mouse
Experimental: This response subsided at 48 hours after termination of treatment. No other adverse findings have been identified thus far with ribitol.

P448L FKRP mutant mice = test: Efficacy in P448L FKRP mutant mouse model; assay type: in vivo
Experimental: Glycosylation levels increased from undetectable levels to up to 26% in skeletal muscles with a reduction in disease specific pathology such as central nucleated fibers (diaphragm) and fibrosis (heart).
Ribitol was studied in a P448L FKRP mutant mouse model to assess drug-mediated improvements in matriglycan expression and muscle performance. In one study the mutant mice were treated with doses of 10 g/kg daily by oral gavage or 2.5 g/kg ribitol IV injection weekly for one month.
In a long-term efficacy study the FKRP P448L mutant mice were dosed up to one year by oral gavage. Matriglycan expression was increased as measured by immunohistochemistry and Western Blot analysis after six months of dosing at 2 g/kg, 5 g/kg, and 10 g/kg daily (FIG. 3). […] Diaphragmatic performance was assessed using whole body plethysmography (FIGS. 5A-5F).

L276I FKRP mutant mice = test: Efficacy in L276I FKRP mutant mouse model; assay type: in vivo
Experimental: The more common LGMD2i FKRP L276I mutation was studied in a murine model of disease. […] Total running time was increased in these dosing groups (FIG. 7C).
The effect of ribitol on an additional model of LGMD2i was evaluated in mice with the L276I FKRP mutation. L276I mutant mice were treated with ribitol at single daily doses of 0.5 g/kg, 2 g/kg, 5 g/kg, and 5 g/kg BID by oral gavage from the age of 8 weeks when the mild dystrophic phenotype is detectable. The duration of treatment was one year. Ribitol was dissolved in saline and administered by oral gavage. The same methods described above were applied to evaluate expression of matriglycan and muscle pathology.

[3] = Plasma protein binding, rapid equilibrium dialysis; assay type: in vitro ADME
Experimental: Protein binding studies with ribitol were performed in vitro using plasma from CD-1 mouse, Sprague-Dawley rat, Gottingen minipig, and human at 75 μg/mL (0.49 mM) and 200 μg/mL (1.31 mM) using the rapid equilibrium dialysis method. The percent of ribitol bound to plasma was approximately similar between the two concentrations tested in all species.

[4] = Metabolic stability, all species; assay type: in vitro ADME, CD-1 mouse, Sprague-Dawley rat, Gottingen minipig, human; conditions: incubated up to 2 hours, all four species
Experimental: Metabolic stability of ribitol was conducted in liver microsomes, cytosol, and primary hepatocytes, from CD-1 mouse, Sprague-Dawley rat, Gottingen minipig, and human at a concentration of ribitol of 10 μM.
Therefore, metabolism is unlikely to be a major elimination pathway of ribitol.

[5] = male, Bama, minipig, in vivo, 24 h
Experimental: Minipigs received 0 (vehicle, purified water), 0.3, 1.0, or 2.0 g/kg of ribitol in a Latinsquare design on Days 1, 12, 17, and 25, respectively. […] Body weights were measured at baseline and on each dosing day. On each dosing occasion, ECG waveforms, heart rate, and blood pressure data were recorded from at least 2 hours prior to dose (to establish baseline values) to approximately 24 hours post-dose. ECG tracings of a minimum of 30 seconds duration were obtained from all minipigs twice prior to each dose (at least 30 minutes apart) and at 0.5, 2, 4, 8, 12, and 24 hours post dose.

[6] = CD-1, mouse, plasma, single PO 0.3 g/kg, female
[7] = CD-1, mouse, plasma, single PO 0.3 g/kg, male
[8] = CD-1, mouse, plasma, single PO 1.0 g/kg, female
[9] = CD-1, mouse, plasma, single PO 1.0 g/kg, male

For `OC[C@@H](O)[C@@H](O)[C@@H](O)CO` [ribitol, (2R,3s,4S)-Pentane-1,2,3,4,5-pentol], the AUC(0-inf) ([1]; Bama, minipig, plasma, IV 10 mg/kg, female) was 17000 ng·h/mL, the half-life ([1]; Bama, minipig, plasma, IV 10 mg/kg, female, read-out: T1/2 (converted)) was 33.4 min and the Vd ([1]; Bama, minipig, plasma, IV 10 mg/kg, female, read-out: Vss) was 0.417 L/kg. It also gave an AUC(0-inf) ([1]; Bama, minipig, plasma, IV 10 mg/kg, male) of 11200 ng·h/mL, a half-life ([1]; Bama, minipig, plasma, IV 10 mg/kg, male, read-out: T1/2 (converted)) of 32.7 min and a Vd ([1]; Bama, minipig, plasma, IV 10 mg/kg, male, read-out: Vss) of 0.603 L/kg. It also gave an AUC(0-inf) ([1]; Bama, minipig, plasma, IV 30 mg/kg, female) of 57000 ng·h/mL, a half-life ([1]; Bama, minipig, plasma, IV 30 mg/kg, female, read-out: T1/2 (converted)) of 44.9 min and a Vd ([1]; Bama, minipig, plasma, IV 30 mg/kg, female, read-out: Vss) of 0.582 L/kg. It also gave an AUC(0-inf) ([1]; Bama, minipig, plasma, IV 30 mg/kg, male) of 35800 ng·h/mL, a half-life ([1]; Bama, minipig, plasma, IV 30 mg/kg, male, read-out: T1/2 (converted)) of 31.1 min and a Vd ([1]; Bama, minipig, plasma, IV 30 mg/kg, male, read-out: Vss) of 0.5 L/kg. For the same molecule, the AUC(0-inf) ([1]; Bama, minipig, plasma, IV 100 mg/kg, female) was 210000 ng·h/mL, the half-life ([1]; Bama, minipig, plasma, IV 100 mg/kg, female, read-out: T1/2 (converted)) was 59.6 min and the Vd ([1]; Bama, minipig, plasma, IV 100 mg/kg, female, read-out: Vss) was 0.434 L/kg. For the same molecule, the AUC(0-inf) ([1]; Bama, minipig, plasma, IV 100 mg/kg, male) was 150000 ng·h/mL, the half-life ([1]; Bama, minipig, plasma, IV 100 mg/kg, male, read-out: T1/2 (converted)) was 46.4 min and the Vd ([1]; Bama, minipig, plasma, IV 100 mg/kg, male, read-out: Vss) was 0.449 L/kg. For the same molecule, the CLs ([1]; IV 10 mg/kg, female) was 10.1 mL/min/kg, the CLs ([1]; IV 10 mg/kg, male) was 15.1 mL/min/kg and the half-life ([1]; both sexes, Bama, plasma, iv, minipig, range, read-out: T1/2 following the IV dose) was 31.1 to 59.6 min. The clearance ([1]; both sexes, Bama, plasma, minipig, IV 10-100 mg/kg, range, read-out: Systemic clearance (CLs)) was 7.95 to 15.1 mL/min/kg, the Vd ([1]; both sexes, Bama, plasma, minipig, IV, range, read-out: Volume of distribution at steady state (Vss)) was 0.417 to 0.603 L/kg and the Tmax (Single oral dose PK; CD-1, mouse, plasma, oral, mice, stated for FOB timepoint selection, read-out: Tmax) was about 60 min. The AUC(0-inf) (Single oral dose PK; [6]) was 55900 ng·h/mL, the Cmax (Single oral dose PK; [6]) was 55 µg/mL and the bioavailability (Single oral dose PK; CD-1, mouse, plasma, single PO 0.3 g/kg, female, read-out: % F) was 30.9%. For the same molecule, the half-life (Single oral dose PK; CD-1, mouse, plasma, single PO 0.3 g/kg, female, read-out: T1/2 (converted)) was 78.6 min, the Tmax (Single oral dose PK; CD-1, mouse, plasma, single PO 0.3 g/kg, female, read-out: Tmax) was 30 min and the AUC(0-inf) (Single oral dose PK; [7]) was 41600 ng·h/mL. The Cmax (Single oral dose PK; [7]) was 45.6 µg/mL, the bioavailability (Single oral dose PK; CD-1, mouse, plasma, single PO 0.3 g/kg, male, read-out: % F) was 24.6% and the half-life (Single oral dose PK; CD-1, mouse, plasma, single PO 0.3 g/kg, male, read-out: T1/2 (converted)) was 40.6 min. The Tmax (Single oral dose PK; CD-1, mouse, plasma, single PO 0.3 g/kg, male, read-out: Tmax) was 30 min, the AUC(0-inf) (Single oral dose PK; [8]) was 129000 ng·h/mL and the Cmax (Single oral dose PK; [8]) was 124 µg/mL. The bioavailability (Single oral dose PK; CD-1, mouse, plasma, single PO 1.0 g/kg, female, read-out: % F) was 22.1%, the half-life (Single oral dose PK; CD-1, mouse, plasma, single PO 1.0 g/kg, female, read-out: T1/2 (converted)) was 70.2 min and the Tmax (Single oral dose PK; CD-1, mouse, plasma, single PO 1.0 g/kg, female, read-out: Tmax) was 30 min. It also gave an AUC(0-inf) (Single oral dose PK; [9]) of 173000 ng·h/mL, a Cmax (Single oral dose PK; [9]) of 112 µg/mL and a bioavailability (Single oral dose PK; CD-1, mouse, plasma, single PO 1.0 g/kg, male, read-out: % F) of 30.5%. For the same molecule, the half-life (Single oral dose PK; CD-1, mouse, plasma, single PO 1.0 g/kg, male, read-out: T1/2 (converted)) was 78.6 min, the Tmax (Single oral dose PK; CD-1, mouse, plasma, single PO 1.0 g/kg, male, read-out: Tmax) was 30 min and the Tmax (Single oral dose PK; both sexes, CD-1, mouse, plasma, po, read-out: Tmax after oral administration) was under 120 min. For the same molecule, the bioavailability (Single oral dose PK; both sexes, CD-1, plasma, po, mouse, range over doses and sexes, read-out: oral bioavailability) was 22.1 to 30.9%, the half-life (Single oral dose PK; both sexes, CD-1, plasma, po, mouse, range, read-out: T1/2 following the oral dose) was 40.6 to 78.6 min and the adverse findings ([2]; 6 months, ≥2 g/kg/day) was “intestinal bloating and soft stool were observed”. For the same molecule, the “time for response to subside after termination of treatment” value ([2]; intestinal bloating and soft stool) was 48 h, the “treadmill exhaustion running distance and running time” value (P448L FKRP mutant mice; 2, 5 g/kg/day, 5 g/kg/dose BID, 3.3 g/kg/dose TID) was “improvements” and the creatine kinase activity (P448L FKRP mutant mice; 6 months) was “decreased with increasing doses”. For the same molecule, the “increase in running time” value (P448L FKRP mutant mice; 6 months, 2 g/kg/day) was 50-75%, the “increase in treadmill distance” value (P448L FKRP mutant mice; 6 months, 2 g/kg/day) was 50% and the efficacious dose (P448L FKRP mutant mice; FKRP mutant mouse models) was 500 mg/kg. The “glycosylation levels in skeletal muscles” value (P448L FKRP mutant mice; from undetectable levels) was “up to 26%”, the muscle histology (P448L FKRP mutant mice; long-term oral dosing) was “decreases in fibrosis” and the “levels of ribitol, ribitol-5-phosphate, CDP-ribitol in heart and leg muscles versus untreated mice” value (P448L FKRP mutant mice; oral or intravenous) was “up to 4 times”. For the same molecule, the creatine kinase (L276I FKRP mutant mice; 1 year oral dosing) was “reduced with increasing doses”, the “expression of matriglycan on αDG (immunohistochemistry)” value (L276I FKRP mutant mice; 1 year oral dosing) was “increases in a dose dependent manner” and the “increase in treadmill running distance” value (L276I FKRP mutant mice; 2 g/kg/day) was 14%. For the same molecule, the “matriglycan expression (immunohistochemistry)” value (L276I FKRP mutant mice; all treatment groups) was “increased matriglycan expression”, the treadmill running distance (L276I FKRP mutant mice; six months, 2, 5 g/kg, 5 g/kg/dose BID, 3.3 g/kg/dose TID) was “trend toward improved running distance” and the total running time (L276I FKRP mutant mice; six months, same dosing groups) was “increased”. For the same molecule, the “% Binding” value ([3]; 75 μg/mL (0.49 mM), CD-1 mouse plasma) was 44.6 ± 1.3%, the “% Binding” value ([3]; 75 μg/mL (0.49 mM), Gottingen minipig plasma) was 44.1 ± 1.0% and the “% Binding” value ([3]; 75 μg/mL (0.49 mM), Sprague-Dawley rat plasma) was 43.3 ± 3.4%. For the same molecule, the “% Binding” value ([3]; 75 μg/mL (0.49 mM), human plasma) was 36.5 ± 1.8%, the “% Binding” value ([3]; 200 μg/mL (1.31 mM), CD-1 mouse plasma) was 42.5 ± 0.3% and the “% Binding” value ([3]; 200 μg/mL (1.31 mM), Gottingen minipig plasma) was 38.6 ± 2.4%. The “% Binding” value ([3]; 200 μg/mL (1.31 mM), Sprague-Dawley rat plasma) was 40.3 ± 0.5%, the “% Binding” value ([3]; 200 μg/mL (1.31 mM), human plasma) was 34.6 ± 0.3% and the fraction unbound ([3]; human plasma, 0.49 and 1.31 mM, range) was 0.635 to 0.654. For the same molecule, the “metabolic stability in liver microsomes, cytosol, hepatocytes” value [4] was “stable; also recorded: not metabolized by the enzymes in the liver”, the “NOEL above efficacious dose of 0.5 g/kg in FKRP mutant mouse models” value [5] was “approximately 4 fold” and the “safety margin for proposed clinical starting dose” value [5] was 227 fold.
